Key:
[1] = test system: choline acetyltransferase (ChAT); test: ChAT activity in hippocampus and frontal cortex homogenates of ovariectomized rats, radio-labelled assay of acetylcholine bio-synthesis; type: in vivo, female Sprague-Dawley rats; conditions: daily s.c. or oral gavage for 3 or 10 days, raloxifene HCl 3 mg/kg/day, estradiol benzoate 0.03 or 0.3 mg/kg/day; for levels of ChAT, difference from the sham controls: OVX rats
Experimental: Forty female Sprague-Dawley rats (weight range of 300 to 325 g, six months old) are obtained from Harlan. The animals are either bilaterally ovariectomized (OVX) or exposed to a Sham surgical procedure, and then shipped after two weeks. Upon arrival, they are housed in metal hanging cages in groups of 3 or 4 per cage and have ad libitum access to food and water for one week. Room temperature is maintained at 22.2°±1.70° C. with a minimum relative humidity of 40%. The photoperiod in the room is 12 hours light and 12 hours dark.
The animals are dosed daily by subcutaneous injection or oral gavage with either raloxifene hydrochloride, at 3 mg/kg/day in a vehicle containing 10% cyclodextrin, estradiol benzoate at 0.03 or 0.3 mg/kg/day, or vehicle control. Animals were treated for 3 or 10 days. There are twenty animals per each dosing regimen. At the appropriate time intervals, the animals are sacrificed and their brains dissected. The particular portions of the brains are homogenized and assayed. Homogenates from the hippocampus and frontal cortex were processed and determination of ChAT activity was made by a radio-labelled assay of the bio-synthesis of acetylcholine. This procedure may be found in Schoepp et al., J. Neural Transmiss., 78:183-193, 1989, the teachings of which are incorporated by reference.

[2] = test system: cognitive and memory functions; test: Prophylactic use: cognitive and memory function by standard tests in peri- or post-menopausal women; type: in vivo, human; conditions: 60 mg/day oral for 1-5 years
Experimental: The methods of the present invention may also be employed in a prophylactic modality. For example, a group of peri- or post-menopausal women may have their cognitive and memory function evaluated by standard tests. Following the establishment of this baseline, the women are administered raloxifene hydrochloride at 60 mg/day, via the oral route, for a period 1-5 years.

Alzheimer's disease = test: Amelioration of Alzheimer's disease in post-menopausal women on chronic administration; type: in vivo, human; conditions: post-menopausal women with Alzheimer's disease; 60 mg per day oral; after 2-12 months
From the text: Thus, the current invention provides methods for the treatment and prophylaxis of syndromes related to the loss of memory, learning, and cognitive function, often seen in women who are estrogen deprived, especially post-menopausal women. An example of such a syndrome is senile dementia of the Alzheimer's type. Beneficial effects, such as a decrease in memory loss, associated with administration of a compound of this invention become apparent after chronic administration.

| SMILES | levels of ChAT, difference from the sham controls [1] | levels of ChAT versus the OVX controls [1] | loss of cognitive and memory functions relative to placebo [2] | effect on Alzheimer's disease (Alzheimer's disease) |
| --- | --- | --- | --- | --- |
| C[C@]12CC[C@@H]3c4ccc(OC(=O)c5ccccc5)cc4CC[C@H]3[C@@H]1CC[C@@H]2O [estradiol benzoate, reference compound] | insignificant difference | significantly (p<0.05) increased | – | – |
| Cl.O=C(c1ccc(OCCN2CCCCC2)cc1)c1c(-c2ccc(O)cc2)sc2cc(O)ccc12 [raloxifene hydrochloride, [2-(4-hydroxyphenyl)-6-hydroxybenzo[b]thien-3-yl][4-[2-(1-piperidinyl)ethoxy]phenyl]methanone hydrochloride] | insignificant difference | significantly (p<0.05) increased | decrease in loss of these functions | amelioration of their disease |

From US6395719B1, “Methods for increasing levels of acetylcholine” (Eli Lilly and Company, priority 1998, dated 2002)
